Measurements taken from ChEMBL document CHEMBL1681684, “Structure based design of heat shock protein 90 inhibitors acting as anticancer agents” (Bioorg Med Chem, 2011).

Assays:
HT-29 [1] = test: Anticancer activity against human HT-29 cells assessed as growth inhibition at 100 uM by MTT assay; assay type: functional
SK-MEL-2 [2] = test: Anticancer activity against human SK-MEL-2 cells assessed as growth inhibition at 100 uM by MTT assay; assay type: functional
SK-OV-3 [3] = test: Anticancer activity against human SKOV3 cells assessed as growth inhibition at 100 uM by MTT assay; assay type: functional
DU-145 [4] = test: Anticancer activity against human DU145 cells by MTT assay; assay type: functional, cell-based
HT-29 [5] = test: Anticancer activity against human HT-29 cells by MTT assay; assay type: functional, cell-based
DU-145 [6] = test: Anticancer activity against human DU145 cells assessed as growth inhibition at 10 uM by MTT assay; assay type: functional
HT-29 [7] = test: Anticancer activity against human HT-29 cells assessed as growth inhibition at 10 uM by MTT assay; assay type: functional
SK-MEL-2 [8] = test: Anticancer activity against human SK-MEL-2 cells assessed as growth inhibition at 10 uM by MTT assay; assay type: functional
A549 [9] = test: Anticancer activity against human A549 cells assessed as growth inhibition at 100 uM by MTT assay; assay type: functional
DU-145 [10] = test: Anticancer activity against human DU145 cells assessed as growth inhibition at 100 uM by MTT assay; assay type: functional
A549 [11] = test: Anticancer activity against human A549 cells by MTT assay; assay type: functional, cell-based
SK-MEL-2 [12] = test: Anticancer activity against human SK-MEL-2 cells by MTT assay; assay type: functional, cell-based
SK-OV-3 [13] = test: Anticancer activity against human SKOV3 cells by MTT assay; assay type: functional, cell-based
MCF7 = test: Anticancer activity against human MCF7 cells by MTT assay; assay type: functional, cell-based

IC50 (DU-145 [4]) [µM]	IC50 (HT-29 [5]) [µM]	IC50 (A549 [11]) [µM]	IC50 (SK-MEL-2 [12]) [µM]	IC50 (SK-OV-3 [13]) [µM]	IC50 (MCF7) [µM]	SMILES	inhibition at 100 µM (HT-29 [1]) [%]	inhibition at 100 µM (SK-MEL-2 [2]) [%]	inhibition at 100 µM (SK-OV-3 [3]) [%]	inhibition at 10 µM (DU-145 [6]) [%]	inhibition at 10 µM (HT-29 [7]) [%]	inhibition at 10 µM (SK-MEL-2 [8]) [%]	inhibition at 100 µM (A549 [9]) [%]	inhibition at 100 µM (DU-145 [10]) [%]
19.7	10.1					Cc1cccc(Nc2nc(NCc3ccco3)c3ccccc3n2)c1	93.6	78.7	93.3	53.7	77.9	77.6		
12.6	4.1	13.3	5.14	14.6		C[C@H](Nc1nc(N2CCNCC2)nc2ccccc12)c1ccccc1	86.5	85.6	86.6				90.2	87.2
30.6	40.7	33.2	47.1	61.6		Oc1ccc(C2=Nc3ccccc3S[C@H](c3ccccc3)C2)cc1	67.9	57.1	51.6				55.8	59.9
46.8	48.5	45.2	34.9	76		COc1ccccc1N/N=C1/C(=O)N(C(N)=S)N=C1c1ccccc1	38	61	45.5				51.9	48
43.1	27.6	27.6	32.9	> 100		COc1cc(C2N(c3ccc(C)cc3)CCN2c2ccc(C)cc2)ccc1O	64.8	58.3	34.3				51.9	40.7
26.1	18.8	30.9	18.9	35		O=S(=O)(NCCC(c1ccccc1)c1ccccc1)c1ccc(Cl)cc1	87.5	77.8	62				65.7	73.5
16.8	7.12	12.9	15.9	16.8		O[C@H]1CCN(c2nc(Nc3cccc4c3CCCC4)c3ccccc3n2)C1	86.1	79.5	89.5				88.8	88.7
44	65.1	35.5	44.2	> 100		O=S(=O)(Nc1ccccc1Oc1ccc(Cl)cc1Cl)c1ccccc1	51.1	43.9	40.1				55	52.6
39.4	33.4	55	45.8	> 100		O=S(=O)(NCCc1c[nH]c2ccc(F)cc12)c1ccc(Br)cc1OC(F)(F)F	63.5	34	22.5				43.5	44.4
> 100	24.1	38.8	53.6	38.8		CCC(C)(C)c1ccc(O)c(NS(=O)(=O)c2ccccc2OC(F)(F)F)c1	37.5	52.4	46.4				50.9	60.1
53.9	63.1	26	42.3	70		O=[N+]([O-])c1cccnc1Sc1ccccc1NS(=O)(=O)c1ccc(Cl)cc1Cl	44.6	40.1	44				47.9	54.5
> 50	8.72					CN(C)CCNc1nc(-c2ccc(C(C)(C)C)cc2)nc2ccccc12	93.4	89.6	92.3	86.5	89.8	91.5		
22.7	14					Oc1ccc(Nc2nc(NCc3ccco3)c3ccccc3n2)cc1	93.3	86.2	92.3	30.3	67.6	39		
24.5	0.902				7.25	COc1ccc(Nc2nc(NCc3ccco3)c3ccccc3n2)cc1	90.9	89.3	92.5	28.7	64.2	22.8		
22.6	15.8					Oc1cccc(Nc2nc(NCc3ccccc3)c3ccccc3n2)c1	81.9	78.9	85.5	35	61.3	46.7		
23.4	2.41					Fc1ccc(Nc2nc(NCc3ccccc3)c3ccccc3n2)cc1	93.4	89.9	91.3	38.2	74.4	69.9		
19.2	16.5					CCOc1ccc(Nc2nc(NCc3ccccc3)c3ccccc3n2)cc1	92.9	88	91.8	58	83.3	91.6		
21.3	13.4					COc1ccc(Nc2nc(NCc3ccccc3)c3ccccc3n2)cc1	92.9	89.3	92.3	52.2	80.7	81.2		
